From article PMC11274883, “Anticancer Effect of Pt^[sequence], Pt^II5MESS, Pt^II56MESS and Their Platinum(IV)-Dihydroxy Derivatives against Triple-Negative Breast Cancer and Cisplatin-Resistant Colorectal Cancer” (Cancers, 2024)

Assays:
MDA−MB−231 cells = test: Label-free quantitative proteomics; assay type: cell-based, Homo Sapiens; conditions: MDA−MB−231, IC50, 72 h; for number of downregulated differentially expressed proteins / number of upregulated differentially expressed proteins: p < 0.05, fold change > 2
Procedure: (§1) The supernatant was then collected into 15 mL tubes, then the cells were washed with PBS and trypsinised. The detached cells were transferred to allocated tubes and centrifuged at 500× g for 5 min at 4 °C. Cell pellet was washed twice with PBS and then resuspended in 300 µL cell lysis buffer (RIPA) for 30 min on ice. Cell extracts were then centrifuged at 12,000× g for 15 min at 4 °C, and the supernatants (containing the proteins) were collected into Lo-Bind Eppendorf. The Bio-Rad protein assay (Bio-Rad, Hercules, CA, USA) was used to assess protein content. For protein extraction and delipidation 100 µL of the cell homogenate was moved to 1.7 mL Lo-Bind Eppendorf tubes and 450 µL methanol was added to the mixture and vortexed. Chloroform (150 µL) was next added and vortexed. Then, water (450 µL) was added to the mixture, vortexed and centrifuged for 5 min at 12,000× g, which formed the protein pellet at the organic/aqueous interface. The layer of chloroform was removed and then 400 µL of methanol was added. The sample was then vortexed and centrifuged at 12,000× g for 15 min. The supernatant was then aspirated and discarded. The pellet was then washed with methanol (400 µL). The supernatant was removed, and the pellets were air-dried overnight. Next, steps were performed for reduction, alkylation, and tryptic digestion of the protein. 0.1% RapiGest (Waters, Milford, MA, USA) in 50 mM aqueous ammonium bicarbonate (20 µL) was added to the air-dried pellet and vortexed for effective suspension. The pellet should completely dissolve. Then, 50 µL of 7 mM DTT in 50 mM aqueous ammonium bicarbonate was added, to give a final concentration of 5 mM DTT. Samples were then heated for 30 min at 60 °C and cooled to room temperature. Iodoacetamide (45 mM) in 50 mM aqueous ammonium bicarbonate was next added to give a concentration of 15 mM. The mixture was allowed to react in the dark for 30 min. Then, 10 ng/µL of Trypsin Gold, Mass spectrometry grade (Promega, NSW, Australia) was added for digestion to occur at room temperature overnight. And 50 µL of 4% (v/v) aqueous trifluoroacetic acid was then added to each tube. Samples were next heated for 45 min at 37 °C to effect decomposition of RapiGest. Samples were then centrifuged at 12,000× g for 10 min at 4 °C. Supernatants were then transferred to total recovery vials and run on a nanoAcquity Ultra-Performance Liquid Chromatography (UPLC) coupled with a Synapt G2-Si instrument (Waters, MA, USA) was used for label-free quantitative protein profiling. Nano-proteomics method is detailed in Method S1. Three independent experiments in triplicates were implemented, while all samples were analysed in a single run with a single injection (1 µL) for each trial. Mass spectrometry (MS) data were processed using Progenesis QI for proteomics (version 4.1, Nonlinear Dynamics, Newcastle upon Tyne, UK), and aligned using UniProt Homo Sapiens reference database IDEP9.6 utilised to cluster and retrieve the initial signature analyses. […] Enrichment studies were performed using gene lists that corresponded to the identified proteins. Overrepresentation analysis was performed based on Gene Ontology (GO) Biological Processes, GO Cellular Components, and GO Molecular Functions using iDEP. Enrichment maps and STRING apps were used to construct pathways networks and explore protein–protein interactions.

HT29 cells [1] = test: Label-free quantitative proteomics; assay type: cell-based, Homo Sapiens; conditions: HT29, IC50, 72 h
Procedure: as §1

HT29 cells [2] = test: Western blot protein expression; assay type: cell-based; conditions: HT29, IC50, 72 h; for β-actin/GAPDH normalized to control (1): representative blot Figure S28A; for β-tubulin/GAPDH normalized to control (1): representative blot Figure S28B; for α-tubulin/GAPDH normalized to control (1): representative blot Figure S28C; for p-AKT/AKT/GAPDH normalized to control (1): representative blot Figure S29A; for p-ERK/ERK/GAPDH normalized to control (1): representative blot Figure S29B; for p53/GAPDH normalized to control (1): representative blot Figure S29C; for p21/GAPDH normalized to control (1): representative blot Figure S29D; for Bax/GAPDH normalized to control (1): representative blot Figure S30A; for Bcl2/GAPDH normalized to control (1): representative blot Figure S30B; for Cyt C/GAPDH normalized to control (1): representative blot Figure S30C; for Procaspase 8/GAPDH normalized to control (1): representative blot Figure S30D; for Cleaved BID/GAPDH normalized to control (1): representative blot Figure S30E; for Procaspase 9/GAPDH normalized to control (1): representative blot Figure S30F; for Cleaved caspase 3/GAPDH normalized to control (1) / Procaspase 3/GAPDH normalized to control (1): representative blot Figure S30G; for Cleaved PARP-1/GAPDH normalized to control (1) / PARP-1/GAPDH normalized to control (1): representative blot Figure S30H; for Beclin1/GAPDH normalized to control (1): representative blot Figure S31A; for ATG5/GAPDH normalized to control (1): representative blot Figure S31B; for ATG16L1/GAPDH normalized to control (1): representative blot Figure S31C; for ATG9A/GAPDH normalized to control (1): representative blot Figure S31D; for ATG4B/GAPDH normalized to control (1): representative blot Figure S31E; for LC3B/GAPDH normalized to control (1): representative blot Figure S31F
Procedure: Protein extraction was then performed on ice. Media were collected in Eppendorf tubes, and centrifuged at 500× g for 5 min at 4 °C. Meanwhile, 200 µL of lysis RIPA buffer, made up of 150 mM NaCl, 50 mM Tris-HCl, pH 8.0, 0.1% Triton X-100, 0.5% sodium deoxycholate, 0.1% SDS and 1 mM sodium orthovanadate, was added to each well, the cells were scrapped into the buffer, and added to the media-derived pellets. The tubes were placed on the shaker for 10 min at 4 °C. Then, cell extracts were centrifuged at 12,000× g for 15 min at 4 °C, and the supernatants (containing the proteins) were collected. The Bio-Rad-DC protein assay (Bio-Rad, Hercules, CA, USA) was used to assess protein content. Laemmli protein sample buffer (4×) with β-mercaptoethanol (9%) was used to prepare a final protein concentration of 20 µg. The samples were then heated at 100 °C for 5 min. A final volume of 30 µL of each sample was added per well and subjected to SDS-PAGE using Bolt 4–12% Bis-Tris gel (Thermo Fisher, Eugene, OR, USA) at 80 V for 30 min and then 120 V for 60 min with PageRuler™ Prestained Protein or SeeBlue Prestained Protein Ladder (Thermo Fisher, Eugene, OR, USA). Proteins were subsequently transferred to a 0.2 µm PVDF membrane (Amersham, Cytiya) using a semi-dry blot transfer. The membrane was then blocked in 5% BSA in TBST, for 1 h and probed overnight at 4 °C with primary antibodies against several cell proliferation, apoptotic, anti-apoptotic, microtubule and autophagic protein markers listed in Table S7 as per the manufacturer’s protocol. The primary antibody was then removed, washed three times for 10 min with TBST and then membranes were treated with either mouse or rabbit HRP-coupled secondary antibodies (1/3000) for 1 h and 30 min. Protein band detection was then performed using the chemiluminescence ECL kit (Thermo Fisher, Eugene, OR, USA). Blot images were obtained using the Odyssey® FC imaging system (LI-COR Biosciences, Lincoln, NE, USA) and band intensities were quantified relatively to glyceraldehyde-3-phosphate dehydrogenase (GAPDH) and then normalised each replicate gel to its corresponding no treatment control using the ImageJ v1.53t software (National Institutes of Health, Bethesda, MD, USA). Each marker results from the same experiment or parallel experiment where the gels were processed in parallel. Three independent experiments per marker were conducted.

Row | Compound | β-actin/GAPDH normalized to control (1) (HT29 cells [2]) | β-tubulin/GAPDH normalized to control (1) (HT29 cells [2]) | α-tubulin/GAPDH normalized to control (1) (HT29 cells [2]) | p-AKT/AKT/GAPDH normalized to control (1) (HT29 cells [2]) | p-ERK/ERK/GAPDH normalized to control (1) (HT29 cells [2]) | p53/GAPDH normalized to control (1) (HT29 cells [2]) | p21/GAPDH normalized to control (1) (HT29 cells [2]) | Bax/GAPDH normalized to control (1) (HT29 cells [2]) | Bcl2/GAPDH normalized to control (1) (HT29 cells [2]) | Cyt C/GAPDH normalized to control (1) (HT29 cells [2]) | Procaspase 8/GAPDH normalized to control (1) (HT29 cells [2]) | Cleaved BID/GAPDH normalized to control (1) (HT29 cells [2]) | Procaspase 9/GAPDH normalized to control (1) (HT29 cells [2]) | Cleaved caspase 3/GAPDH normalized to control (1) (HT29 cells [2]) | Procaspase 3/GAPDH normalized to control (1) (HT29 cells [2]) | Cleaved PARP-1/GAPDH normalized to control (1) (HT29 cells [2]) | PARP-1/GAPDH normalized to control (1) (HT29 cells [2]) | Beclin1/GAPDH normalized to control (1) (HT29 cells [2]) | ATG5/GAPDH normalized to control (1) (HT29 cells [2]) | ATG16L1/GAPDH normalized to control (1) (HT29 cells [2]) | also measured
1 | Cc1cc2cccnc2c2ncccc12.N[C@H]1CCCC[C@@H]1N.O=[N+]([O-])[O-].O=[N+]([O-])[O-].[OH][Pt+2][OH] [Pt^IV5MESS(OH)2, [Pt(5-methyl-1,10-phenanthroline)(1S,2S-diaminocyclohexane)(dihydroxy)](NO3)2] | 0.2948 | 0.1611 | 0.1518 | 0.4249 | 1.297 | 3.349 | 2.658 | 3.075 | 0.4381 | 6.184 | 0.4372 | 2.712 | 0.2026 | 7.887 | 1.238 | 5.761 | 0.6207 | 6.943 | 0.2364 | 2.006 | number of downregulated differentially expressed proteins (MDA−MB−231 cells): 33; number of upregulated differentially expressed proteins (MDA−MB−231 cells): 38; detected up and down differentially regulated proteins (HT29 cells [1]): 3; ATG9A/GAPDH normalized to control (1) (HT29 cells [2]): 2.334; ATG4B/GAPDH normalized to control (1) (HT29 cells [2]): 0.5922; LC3B/GAPDH normalized to control (1) (HT29 cells [2]): 1.713
2 | Cc1cc2cccnc2c2ncccc12.N[C@H]1CCCC[C@@H]1N.O=[N+]([O-])[O-].O=[N+]([O-])[O-].[Pt+2] [Pt^II5MESS, [Pt(5-methyl-1,10-phenanthroline)(1S,2S-diaminocyclohexane)](NO3)2] | 0.2979 | 0.1238 | 0.06789 | 0.07338 | 0.7076 | 1.275 | 1.147 | 1.624 | 0.09591 | 3.741 | 0.2934 | 1.69 | 0.1393 | 10.88 | 0.7678 | 11.42 | 0.2554 | 3.11 | 0.9969 | 1.285 | DEPs exhibited by the treatment (UpSet plot) (MDA−MB−231 cells): 22; number of downregulated differentially expressed proteins (MDA−MB−231 cells): 75; number of upregulated differentially expressed proteins (MDA−MB−231 cells): 91; DEPs exhibited by the treatment (UpSet plot) (HT29 cells [1]): 34; number of downregulated differentially expressed proteins (HT29 cells [1]; p < 0.05, fold change > 2): 118; number of upregulated differentially expressed proteins (HT29 cells [1]; p < 0.05, fold change > 2): 110; ATG9A/GAPDH normalized to control (1) (HT29 cells [2]): 0.4486; ATG4B/GAPDH normalized to control (1) (HT29 cells [2]): 0.7306; LC3B/GAPDH normalized to control (1) (HT29 cells [2]): 1.207
3 | N.N.[Cl][Pt][Cl] [Cisplatin, cisplatin] | 0.6345 | 0.8003 | 0.8201 | 0.288 | 1.125 | 0.9507 | 2.964 | 1.81 | 0.5659 | 2.419 | 0.004029 | 2.527 | 0.6388 | 11.81 | 1.2 | 3.484 | 0.8236 | 3.89 | 1.193 | 1.173 | ATG9A/GAPDH normalized to control (1) (HT29 cells [2]): 2.212; ATG4B/GAPDH normalized to control (1) (HT29 cells [2]): 1.101; LC3B/GAPDH normalized to control (1) (HT29 cells [2]): 3.233
